This note sets out measurements from patent US8741836B2, “Polypeptides” (Novo Nordisk A/S, priority 2011, dated 2014).

The nature of the data set: Assay (III) ThT fibrillation assay for physical stability. Particulars: for ThT pH 4.0 lag time: pH 4.0, ThT fibrillation assay. Type of data set: physicochemical. A digest of the protocol:
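Freshly prepared, pH-adjusted formulations with 1 μM ThT incubated at 37 °C under 960 rpm orbital shaking (1 mm), fluorescence (ex 444, em 485 nm) read every 20 min. […] Peptide content before and after measured by reverse-phase HPLC against pramlintide standard.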

Starred links: 1 amine or outer side, 2 acyl side, 3 side chain; linkers in the order of their positions; H or OH if unused. Positions of bridges follow the written chain, without caps; N, C: chain ends. Residues, ends and D or L forms follow the SMILES beside them. *: point of attachment. C20 diacid = O=C(O)CCCCCCCCCCCCCCCCCCC(=O)*; γGlu = O=C(O)[C@H](CCC(=O)[*:2])N[*:1] Where only a bound is given, the exact number is not on record here.

As to `CC[C@H](C)[C@H](NC(=O)[C@@H]1CCCN1C(=O)CNC(=O)[C@H](Cc1ccccc1)NC(=O)[C@H](CC(N)=O)NC(=O)[C@H](CCC(N)=O)NC(=O)[C@H](CO)NC(=O)[C@H](CO)NC(=O)[C@H](Cc1c[nH]cn1)NC(=O)[C@H](CCCNC(=N)N)NC(=O)[C@H](CC(C)C)NC(=O)[C@H](Cc1ccccc1)NC(=O)[C@H](CCC(=O)O)NC(=O)[C@H](C)NC(=O)[C@H](CC(C)C)NC(=O)[C@H](CCCNC(=N)N)NC(=O)[C@H](CCC(N)=O)NC(=O)[C@@H](NC(=O)[C@H](C)NC(=O)[C@@H]1CSSC[C@H](NC(=O)[C@H](CCC(=O)O)NC(=O)[C@H](CCCNC(=N)N)NC(=O)[C@H](CCC(=O)O)NC(=O)CC[C@H](NC(=O)CCCCCCCCCCCCCCCCCCC(=O)O)C(=O)O)C(=O)N[C@@H](CC(N)=O)C(=O)N[C@@H]([C@@H](C)O)C(=O)N[C@@H](C)C(=O)N[C@@H]([C@@H](C)O)C(=O)N1)[C@@H](C)O)C(=O)N[C@@H](CC(C)C)C(=O)N1CCC[C@H]1C(=O)N1CCC[C@H]1C(=O)N[C@H](C(=O)N[C@@H](CC(N)=O)C(=O)N[C@H](C(=O)NCC(=O)N[C@@H](CO)C(=O)N[C@@H](CC(N)=O)C(=O)N[C@H](C(=O)N1CCC[C@H]1C(N)=O)[C@@H](C)O)C(C)C)[C@@H](C)O` [Example 161, N-alpha-[(S)-4-Carboxy-4-(19-carboxynonadecanoylamino)butyryl]-Glu-Arg-[Glu1,Glu14,Arg17,Gln21,Pro37]-pramlintide] ({C20 diacid-γGlu}-ERECNTATCATQRLAEFLRHSSQNFGPILPPTNVGSNTP-NH2; disulfide 4-9 (inferred)), the “ThT pH 4.0 lag time (physical stability in fibrillogenesis assay)” value is above 45 h and the “ThT pH 4.0 lag time” value is reported as above 45 h.
On to `CC[C@H](C)[C@H](NC(=O)[C@@H]1CCCN1C(=O)CNC(=O)[C@H](Cc1ccccc1)NC(=O)[C@H](CC(N)=O)NC(=O)[C@H](CC(N)=O)NC(=O)[C@H](CO)NC(=O)[C@H](CO)NC(=O)[C@H](Cc1c[nH]cn1)NC(=O)[C@H](Cc1c[nH]cn1)NC(=O)[C@H](CC(C)C)NC(=O)[C@H](Cc1ccccc1)NC(=O)[C@H](CCC(=O)O)NC(=O)[C@H](C)NC(=O)[C@H](CC(C)C)NC(=O)[C@H](CCCNC(=N)N)NC(=O)[C@H](CCC(N)=O)NC(=O)[C@@H](NC(=O)[C@H](C)NC(=O)[C@@H]1CSSC[C@H](NC(=O)CC[C@H](NC(=O)CCCCCCCCCCCCCCCCCCC(=O)O)C(=O)O)C(=O)N[C@@H](CC(N)=O)C(=O)N[C@@H]([C@@H](C)O)C(=O)N[C@@H](C)C(=O)N[C@@H]([C@@H](C)O)C(=O)N1)[C@@H](C)O)C(=O)N[C@@H](CC(C)C)C(=O)N1CCC[C@H]1C(=O)N1CCC[C@H]1C(=O)N[C@H](C(=O)N[C@@H](CC(N)=O)C(=O)N[C@H](C(=O)NCC(=O)N[C@@H](CO)C(=O)N[C@@H](Cc1c[nH]cn1)C(=O)N[C@H](C(=O)N[C@@H](Cc1ccc(O)cc1)C(N)=O)[C@@H](C)O)C(C)C)[C@@H](C)O` [Example 75, N-alpha-[(S)-4-Carboxy-4-(19-carboxynonadecanoylamino)butyryl]-[des1,Glu14,His17,His35]-pramlintide] ({C20 diacid-γGlu}-CNTATCATQRLAEFLHHSSNNFGPILPPTNVGSHTY-NH2; disulfide 1-6), for which the “ThT pH 4.0 lag time” value is recorded as 28 h.
For `CC[C@H](C)[C@H](NC(=O)[C@@H]1CCCN1C(=O)CNC(=O)[C@H](Cc1ccccc1)NC(=O)[C@H](CC(N)=O)NC(=O)[C@H](CC(N)=O)NC(=O)[C@H](CO)NC(=O)[C@H](CO)NC(=O)[C@H](Cc1c[nH]cn1)NC(=O)[C@H](CCCNC(=N)N)NC(=O)[C@H](CC(C)C)NC(=O)[C@H](Cc1ccccc1)NC(=O)[C@H](CCC(=O)O)NC(=O)[C@H](C)NC(=O)[C@H](CC(C)C)NC(=O)[C@H](CCCNC(=N)N)NC(=O)[C@H](CCC(N)=O)NC(=O)[C@@H](NC(=O)[C@H](C)NC(=O)[C@@H]1CSSC[C@H](NC(=O)[C@H](CCC(=O)O)NC(=O)[C@H](CCCNC(=N)N)NC(=O)[C@H](CCC(=O)O)NC(=O)CC[C@H](NC(=O)CCCCCCCCCCCCCCCCCCC(=O)O)C(=O)O)C(=O)N[C@@H](CC(N)=O)C(=O)N[C@@H]([C@@H](C)O)C(=O)N[C@@H](C)C(=O)N[C@@H]([C@@H](C)O)C(=O)N1)[C@@H](C)O)C(=O)N[C@@H](CC(C)C)C(=O)N1CCC[C@H]1C(=O)N1CCC[C@H]1C(=O)N[C@H](C(=O)N[C@@H](CC(N)=O)C(=O)N[C@H](C(=O)NCC(=O)N[C@@H](CO)C(=O)N[C@@H](CC(N)=O)C(=O)N[C@H](C(=O)N1CCC[C@H]1C(N)=O)[C@@H](C)O)C(C)C)[C@@H](C)O` [Example 124, N-alpha-[(S)-4-Carboxy-4-(19-carboxynonadecanoylamino)butyryl]-Glu-Arg-[Glu1,Glu14,Arg17,Pro37]-pramlintide] ({C20 diacid-γGlu}-ERECNTATCATQRLAEFLRHSSNNFGPILPPTNVGSNTP-NH2; disulfide 4-9 (inferred); C-terminus assumed), the “ThT pH 4.0 lag time (physical stability in fibrillogenesis assay)” value is above 45 h and the “ThT pH 4.0 lag time” value is recorded as above 45 h.
As to `CC[C@H](C)[C@H](NC(=O)[C@@H]1CCCN1C(=O)CNC(=O)[C@H](Cc1ccccc1)NC(=O)[C@H](CC(N)=O)NC(=O)[C@H](CC(N)=O)NC(=O)[C@H](CO)NC(=O)[C@H](CO)NC(=O)[C@H](Cc1c[nH]cn1)NC(=O)[C@H](Cc1c[nH]cn1)NC(=O)[C@H](CC(C)C)NC(=O)[C@H](Cc1ccccc1)NC(=O)[C@H](CCC(=O)O)NC(=O)[C@H](C)NC(=O)[C@H](CC(C)C)NC(=O)[C@H](CCCNC(=N)N)NC(=O)[C@H](CCC(N)=O)NC(=O)[C@@H](NC(=O)[C@H](C)NC(=O)[C@@H]1CSSC[C@H](NC(=O)[C@H](Cc2c[nH]cn2)NC(=O)[C@H](Cc2c[nH]cn2)NC(=O)[C@H](Cc2c[nH]cn2)NC(=O)CC[C@H](NC(=O)CCCCCCCCCCCCCCCCCCC(=O)O)C(=O)O)C(=O)N[C@@H](CC(N)=O)C(=O)N[C@@H]([C@@H](C)O)C(=O)N[C@@H](C)C(=O)N[C@@H]([C@@H](C)O)C(=O)N1)[C@@H](C)O)C(=O)N[C@@H](CC(C)C)C(=O)N1CCC[C@H]1C(=O)N1CCC[C@H]1C(=O)N[C@H](C(=O)N[C@@H](CC(N)=O)C(=O)N[C@H](C(=O)NCC(=O)N[C@@H](CO)C(=O)N[C@@H](Cc1c[nH]cn1)C(=O)N[C@H](C(=O)N[C@@H](Cc1ccc(O)cc1)C(N)=O)[C@@H](C)O)C(C)C)[C@@H](C)O` [Example 31, N-alpha-[(S)-4-Carboxy-4-(19-carboxynonadecanoylamino)butyryl]-His-His-[His1,Glu14,His17,His35]-pramlintide] ({C20 diacid-γGlu}-HHHCNTATCATQRLAEFLHHSSNNFGPILPPTNVGSHTY-NH2; disulfide 4-9), the “ThT pH 4.0 lag time” value is reported as above 45 h.
